Where a name gives a salt, the structure may show the parent alone.
Assay: Solubility in acetonitrile, calculated based on the total solvent used to give a solution
Format: physicochemical
Conditions: organic solvent or mixture, thermodynamic from solid

solubility: > 11 mg/mL
SMILES: CCc1ccc(C(=O)C(C)CN2CCCCC2)cc1 (single isomer, unassigned) [substantially enantiopure crystalline eperisone hydrochloride, eperisone hydrochloride]
